Test results taken from PubChem BioAssay (NCI).
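Compound exposure: 48 hours, 5 concentrations, 96-well plates. At the TGI there is no net growth.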

Key:
Test in all cases: NCI tumour cell line growth inhibition, 48 h
XF 498 CNS = tested on: XF 498 CNS
M14 melanoma = tested on: M14 melanoma
OVCAR-3 ovarian = tested on: OVCAR-3 ovarian
SK-OV-3 ovarian = tested on: SK-OV-3 ovarian
IGROV1 ovarian = tested on: IGROV1 ovarian
SF-295 CNS = tested on: SF-295 CNS
OVCAR-4 ovarian = tested on: OVCAR-4 ovarian
786-0 renal = tested on: 786-0 renal
DMS 114 small cell lung = tested on: DMS 114 small cell lung
K-562 leukemia = tested on: K-562 leukemia
SNB-75 CNS = tested on: SNB-75 CNS
COLO 205 colon = tested on: COLO 205 colon
RXF 393 renal = tested on: RXF 393 renal
SK-MEL-5 melanoma = tested on: SK-MEL-5 melanoma
CCRF-CEM leukemia = tested on: CCRF-CEM leukemia
RPMI-8226 leukemia = tested on: RPMI-8226 leukemia
LOX IMVI melanoma = tested on: LOX IMVI melanoma
U251 CNS = tested on: U251 CNS
DMS 273 small cell lung = tested on: DMS 273 small cell lung
KM20L2 colon = tested on: KM20L2 colon
NCI-H522 lung = tested on: NCI-H522 lung
SNB-19 CNS = tested on: SNB-19 CNS
HOP-92 NSCLC = tested on: HOP-92 NSCLC
TK-10 renal = tested on: TK-10 renal
A549 NSCLC = tested on: A549 NSCLC
CAKI-1 renal = tested on: CAKI-1 renal
OVCAR-8 ovarian = tested on: OVCAR-8 ovarian
SF-268 CNS = tested on: SF-268 CNS
SW-620 colon = tested on: SW-620 colon
UO-31 renal = tested on: UO-31 renal
HOP-62 NSCLC = tested on: HOP-62 NSCLC
HCT-15 colon = tested on: HCT-15 colon
A498 renal = tested on: A498 renal
HT29 colon = tested on: HT29 colon
SK-MEL-28 melanoma = tested on: SK-MEL-28 melanoma
SN12C renal = tested on: SN12C renal
MALME-3M melanoma = tested on: MALME-3M melanoma
M19-MEL melanoma = tested on: M19-MEL melanoma
UACC-257 melanoma = tested on: UACC-257 melanoma
NCI-H460 lung = tested on: NCI-H460 lung
SK-MEL-2 melanoma = tested on: SK-MEL-2 melanoma
KM12 colon = tested on: KM12 colon
UACC-62 melanoma = tested on: UACC-62 melanoma
NCI-H226 lung = tested on: NCI-H226 lung
ACHN renal = tested on: ACHN renal
HCT-116 colon = tested on: HCT-116 colon
OVCAR-5 ovarian = tested on: OVCAR-5 ovarian
DLD-1 colon = tested on: DLD-1 colon
HOP-18 NSCLC = tested on: HOP-18 NSCLC
HCC-2998 colon = tested on: HCC-2998 colon
NCI-H23 lung = tested on: NCI-H23 lung
MOLT-4 leukemia = tested on: MOLT-4 leukemia
SNB-78 CNS = tested on: SNB-78 CNS
HL-60(TB) leukemia = tested on: HL-60(TB) leukemia
EKVX NSCLC = tested on: EKVX NSCLC
SF-539 CNS = tested on: SF-539 CNS
SR leukemia = tested on: SR leukemia
LXFL 529 NSCLC = tested on: LXFL 529 NSCLC

Measured: TGI

Cc1cccc(C=NC23CC4CC(CC(C4)C2)C3)c1
not listed: SR leukemia | LXFL 529 NSCLC
> 100 µM: all other assays above

CCNC1CC(n2cc(C)c(=O)[nH]c2=O)OC1CO (stereo not drawn)
not listed: OVCAR-3 ovarian | SF-295 CNS | RXF 393 renal | SK-MEL-5 melanoma | LOX IMVI melanoma | U251 CNS | KM20L2 colon | SNB-19 CNS | TK-10 renal | A549 NSCLC | OVCAR-8 ovarian | SW-620 colon | HCT-15 colon | HT29 colon | UACC-257 melanoma | KM12 colon | ACHN renal | OVCAR-5 ovarian | HOP-18 NSCLC | EKVX NSCLC
> 100 µM: all other assays above

C[C@@H]1CC2(C[C@@H](C)C3[C@@H](CC4(C)CCCC5C6=CC(O)(CC[C@]34C)OC6=CC(=O)OC5(C)C)O2)OC1=O (stereo partly drawn)
not listed: SF-295 CNS | CCRF-CEM leukemia | KM20L2 colon | CAKI-1 renal | OVCAR-8 ovarian | SF-268 CNS | HOP-62 NSCLC | A498 renal | HT29 colon | M19-MEL melanoma | UACC-257 melanoma | NCI-H460 lung | SNB-78 CNS | EKVX NSCLC
> 100 µM: all other assays above
